What follows are compounds tested against T1, AR (Homo sapiens, UniProt P10275, T878A) (assay: AR transcriptional activity, LNCaP-ARR2PB-eGFP reporter cells). Conditions: read-out: IC50 AR transcriptional activities.
T1 construct: into the androgen-dependent PCa cells (LNCaP); endogenous in cells; host or cells: LNCaP-ARR2PB-eGFP
T1 sequence (P10275 1-920 T878A): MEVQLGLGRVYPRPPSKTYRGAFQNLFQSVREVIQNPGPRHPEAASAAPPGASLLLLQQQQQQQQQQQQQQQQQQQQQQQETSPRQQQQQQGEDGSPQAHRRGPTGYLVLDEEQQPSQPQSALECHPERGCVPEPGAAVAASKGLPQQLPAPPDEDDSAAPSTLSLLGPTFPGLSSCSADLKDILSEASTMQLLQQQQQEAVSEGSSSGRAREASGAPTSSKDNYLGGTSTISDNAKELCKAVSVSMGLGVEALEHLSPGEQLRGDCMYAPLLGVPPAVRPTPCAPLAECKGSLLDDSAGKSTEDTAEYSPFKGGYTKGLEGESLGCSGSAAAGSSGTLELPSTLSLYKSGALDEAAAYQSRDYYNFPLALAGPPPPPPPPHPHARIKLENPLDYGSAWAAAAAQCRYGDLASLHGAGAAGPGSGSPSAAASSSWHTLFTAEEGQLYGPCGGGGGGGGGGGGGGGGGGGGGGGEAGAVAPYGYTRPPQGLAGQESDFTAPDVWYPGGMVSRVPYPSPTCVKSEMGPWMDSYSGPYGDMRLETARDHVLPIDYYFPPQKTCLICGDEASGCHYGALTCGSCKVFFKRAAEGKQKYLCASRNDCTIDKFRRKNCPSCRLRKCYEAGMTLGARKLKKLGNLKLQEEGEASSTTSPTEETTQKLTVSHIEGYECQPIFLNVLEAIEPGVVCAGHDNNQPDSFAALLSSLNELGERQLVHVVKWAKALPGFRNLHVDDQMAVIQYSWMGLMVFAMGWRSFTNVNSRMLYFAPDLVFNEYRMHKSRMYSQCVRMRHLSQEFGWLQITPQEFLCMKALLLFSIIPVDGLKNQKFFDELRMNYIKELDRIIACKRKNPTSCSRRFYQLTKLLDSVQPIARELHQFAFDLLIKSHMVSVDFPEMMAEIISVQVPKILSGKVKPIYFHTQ
Format: cell-based
Source text: Detection principles: We conducted a stable transfection of promoter ARR2PB known for its strong AR responsiveness, into the androgen-dependent PCa cells (LNCaP). The expression of enhanced green fluorescent protein (eGFP) is depending on the degree of activation of AR. Therefore, LNCaP-ARR2PB-eGFP cell line could quantitatively determine the AR antagonistic activities of the compounds by evaluating the expression of eGFP.
For `Cc1oc(C(=O)Nc2nc(CN3CCOCC3)ns2)cc1-c1cccc(OC(F)(F)F)c1` [Compound F-27, 5-Methyl-N-(3-(morpholinomethyl)-1,2,4-thiadiazol-5-yl)-4-(3-(trifluoromethoxy)phenyl)furan-2-carboxamide], the IC50 was 15.6 µM.
Work on `CC(Cc1nsc(NC(=O)c2cc(-c3cccc(C(F)(F)F)c3)oc2C(F)(F)F)n1)=C(F)F` [Compound E-22, N-(3-(3,3-difluoro-2-methylallyl)-1,2,4-thiadiazol-5-yl)-2-(trifluoromethyl)-5-(3-(trifluoromethyl)phenyl) furan-3-carboxamide] yielded an IC50 of 1.46 µM.
For `CC(Cc1nsc(NC(=O)c2cc(-c3cccc(C#N)c3)oc2C(F)(F)F)n1)N1CCOCC1` (stereo not shown) [Compound E-8, 5-(3-Cyanophenyl)-N-(3-(2-morpholinopropyl)-1,2,4-thiadiazol-5-yl)-2-(trifluoromethyl)furan-3-carboxamide], the IC50 was 7.54 µM.
`Cc1oc(-c2cccc(C(F)(F)F)c2)cc1C(=O)Nc1nc(CC(C)N2CCCCC2)ns1` (stereo not shown) [Compound A-41, 2-Methyl-N-(3-(2-(piperidin-1-yl)propyl)-1,2,4-thiadiazol-5-yl)-5-(3-(trifluoromethyl)phenyl)furan-3-carboxamide] showed an IC50 of 0.17 µM.
Work on `CN(C)Cc1nsc(NC(=O)c2coc(-c3cccc(C#N)c3)c2)n1` [Compound B-47, 5-(3-Cyanophenyl)-N-(3-((dimethylamino)methyl)-1,2,4-thiadiazol-5-yl)furan-3-carboxamide] yielded an IC50 of 18.6 µM.
Work on `CC(=O)Cc1nsc(NC(=O)c2cc(-c3cccc(C(=O)O)c3)oc2C)n1` [Compound A-29, 3-(5-Methyl-4-((3-(2-oxopropyl)-1,2,4-thiadiazol-5-yl)carbamoyl)furan-2-yl)benzoic acid] yielded an IC50 of 0.94 µM.

The compounds below were run on LNCaP xenograft (assay: LNCaP xenograft model in vivo). Conditions: intratumor injection 2.5 mg/kg/week.
Procedure: Methods: LNCaP cells were injected to the Male CB17 SCID mice (6-8 weeks old). Once tumor size reached target value, the mice were randomized into three groups with 6-8 mice per group. […] The mice weight and tumor volume were periodically recorded. Finally, the tumors were harvested.
`CNC(=O)c1ccc(N2C(=S)N(c3ccc(C#N)c(C(F)(F)F)c3)C(=O)C2(C)C)cc1F` [Enzalutamide, reference compound] was tested, and the body weight was “no significant loss of body weight”.

From US20240376091A1, “THIADIAZOLEAMIDE DERIVATIVES AND THEIR APPLICATIONS” (ZHEJIANG UNIVERSITY, priority 2021, published 2024)
